Assay [1] addresses T1, rHuTS (recombinant human thymidylate synthase) (Homo sapiens, UniProt P04818).
T1 construct: His tag (from pET-28a(+)) (N); made in house; host or cells: E. coli BL21 (DE3)/pET-28a(+)
Kind of assay: Enzyme kinetics of rHuTS with dUMP and BVdUMP. It is filed as biochemical. As to the method:
Enzyme Preparation. Cloned human thymidylate synthase plasmid pBCHTS was subcloned into E. coli. BL21 (DE3)/pET-28a(+) (Novagen) using the Ndel ñSacI insertion site, in order to add an amino terminal His tag. Enzyme was expressed in E. coli. by induction with IPTG, and purified by affinity chromatography on a Ni^2+ His Bind metal chelation resin (Novagen). The column Ni^2+ His Bind metal chelation column was washed with 20 mM Tris pH 7.9, 5 mM imidazole, 0.5M NaCl; thymidylate synthase activity was eluted with 20 mM Tris pH 7.9, 60 mM imidazole, 0.5M NaCl.
(§1) Enzyme Assays and Kinetic Measurements. Thymidylate synthase assays were done in 96 well Costar UV transparent plates in a reaction volume of 200 μL, consisting of 40 mM Tris pH 7.5, 25 mM MgCl2, 1 mM EDTA, 25 mM-mercaptoethanol, 125M dUMP, and 65 μM N5, N10-methylene tetrahydrofolate indicated. Tetrahydrofolate stock solutions were prepared by dissolving tetrahydrofolic acid (Sigma) directly into 0.2M Tris pH 7.5, 0.5 M-mercaptoethanol; stock solutions were stored at −80° C. N5, N10-methylene tetrahydrofolate was prepared by adding 12 μl of 3.8% formaldehyde to 1 ml of a 0.65 mM solution of tetrahydrofolate and incubating for 5 minutes at 37° C. N5, N10-methylene tetrahydrofolate was kept on ice and used within 2 hours of preparation.
Enzyme kinetic constants (Km and Vmax) were determined for the human thymidylate synthase substrates dUMP and BVdUMP using the enzyme assay conditions described above. The initial rates of the enzyme reactions was determined by measuring the increase in A340 for the reaction with dUMP, and decrease in A294 for the reaction with BVdUMP. The catalytic efficiency of the enzyme (Kcat/Km) was calculated from the kinetic constants Km and Vmax.

For assay [2], the target named is T2, rHuTS (Homo sapiens, UniProt P04818).
T2 construct: His tag (from pET-28a(+)) (N); made in house; host or cells: E. coli BL21 (DE3)/pET-28a(+)
In words: Inhibition of rHuTS reactions by Tomudex and 5-FdUMP (initial rates). It is filed as biochemical. The settings on record: 30° C., fluorescence 340/595 nm. As to the method:
as §1
Conversion of BVdUMP to fluorescent product(s) by thymidylate synthase was measured in 200 μl thymidylate synthase reactions containing 125M BVdUMP in 96 well Dynex Microfluor Black “U” bottom microtiter plates using an excitation wavelength of 340 nm and emission wavelength of 595 nm. Fluorescence was measured with a Tecan Spectrafluor Plus fluorimeter.

The target of assay [3] is T2, rHuTS. Kind of assay: Preincubation of rHuTS with BVdUMP (enzyme inactivation). Type of assay: biochemical. The note with it: 20 hour incubation with 125 μM BVdUMP, then dUMP as substrate. As to the method: Human thymidylate synthase was pre-incubated in reaction mixtures with and without 125 μM BVdUMP. After 20 hours, BVdUMP was added to a concentration of 125 μM, dUMP to a final concentration of 125 μM, and N5, N10-methylene tetrahydrofolate was added to 70 μM. Thymidylate synthase activity was determined by measuring the increase in A340. Solid circles (preincubated reaction), Open circles (no preincubation).
To help further clarify this situation, an extended incubation of rHuTS with BVdUMP was done in order to measure any inactivation that may occur over a period of time longer than that in which the kinetics were performed (FIG. 2).

For assay [4], the target named is T3, Lactobacillus casei TS (Lacticaseibacillus casei, UniProt P00469).
T3 sequence (P00469 1-316): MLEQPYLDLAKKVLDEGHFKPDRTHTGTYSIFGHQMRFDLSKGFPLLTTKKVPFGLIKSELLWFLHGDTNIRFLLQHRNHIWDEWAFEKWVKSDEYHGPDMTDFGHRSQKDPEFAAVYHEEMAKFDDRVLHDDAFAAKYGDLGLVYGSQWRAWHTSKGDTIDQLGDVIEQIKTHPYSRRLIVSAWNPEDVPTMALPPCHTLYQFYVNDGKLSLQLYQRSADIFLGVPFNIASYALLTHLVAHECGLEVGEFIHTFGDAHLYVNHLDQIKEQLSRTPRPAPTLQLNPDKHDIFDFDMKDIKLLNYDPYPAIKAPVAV
The settings on record: cited from earlier work.

Usually Km stands for the concentration of substrate that gives half-maximal velocity.

pKi: −log10 of the molar value. A value given as a limit tells only on which side of the number the result lay.

T2 sequence (P04818 whole entry): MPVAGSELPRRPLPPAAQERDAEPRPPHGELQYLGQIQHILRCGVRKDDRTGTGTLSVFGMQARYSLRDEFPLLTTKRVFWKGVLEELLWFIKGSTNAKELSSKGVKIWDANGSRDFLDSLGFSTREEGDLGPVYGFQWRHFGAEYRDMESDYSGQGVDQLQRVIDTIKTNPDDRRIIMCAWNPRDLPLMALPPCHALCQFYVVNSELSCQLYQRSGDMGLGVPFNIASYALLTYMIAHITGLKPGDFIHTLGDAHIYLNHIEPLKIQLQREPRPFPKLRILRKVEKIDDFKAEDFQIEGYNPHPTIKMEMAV
T1 sequence (P04818 whole entry): as above

Turning to `O=c1[nH]c(=O)n([C@H]2C[C@H](O)[C@@H](COP(=O)(O)O)O2)cc1/C=C/Br` [BVdUMP, Bromovinyl, 2′-Deoxyuridine Monophosphate], the Kcat in assay [1] (rHuTS) is 0.0067 s⁻¹; in assay [4] it was 0.018 s⁻¹. The pKi in assay [1] (rHuTS, dUMP reaction, read-out: Kl (of BVdUMP)) is 5.35; in assay [4] (dUMP reaction, read-out: Kl (of BVdUMP)) it was 6.22. Besides, the Km is 16 µM in assay [1] (rHuTS, substrate) and 3.3 µM in assay [4] (substrate). In addition, the “improved efficiency of conversion of BVdUMP, human enzyme vs L. casei enzyme” value in assay [1] (relative to endogenous substrate dUMP) is over 6.4 fold. The “initial rate of rHuTS reaction, No Inhibitor” value in assay [2] (BVdUMP + THF) is 109 ± 16 RFU/min; in assay [2] (BVdUMP − THF) it was 75 ± 11 RFU/min. For the same compound, the “inactivation of rHuTS” value in assay [3] is given as “little or no enzymatic inactivation”.

The values are drawn from patent US7462605B2, “Phosphoramidate compounds and methods of use” (Celmed Oncology (USA), Inc., priority 2002, dated 2008).
